The target in one assay is EGFR kinase (Homo sapiens, UniProt P00533). Nature of the assay: EGFR/ErbB2 enzymatic experiment (HTRF kinEASE-TK), EGFR. The format is biochemical. To be noted: EGFR kinase 0.06 units/μL, ATP 1.65 μM; read-out: Kinase IC50 (nM) in vitro EGFR. The procedure: (§1) EGFR/ErbB2 Enzymatic Experiment
(§2) Firstly, 1× reaction buffer required for the kinase was prepared, then 5× Enzymatic buffer (HEPES 20 mM pH 7.0, NaN3 0.1%, BSA 0.05%, sodium orthovanadate 0.5 mM) was diluted in HTRF kinEASE-TK kit by 1 time with deionized water, and 50 nM Supplement Enzymatic buffer (SEB REAGENT), 1 mM MnCl2, 5 mM MfCl2, 1 mM DTT were added. Secondly, 5× compound was prepared, and 10 mM test compound storage solution was diluted in multiple steps with DMSO in a 96-well compound plate to prepare 100× compound as an initial concentration, which was then used as the first concentration to carry out a 3-fold gradient dilution with DMSO to obtain a total of 10 concentrations. Then 1 μL of gradient diluent was added to 19 μL of 1× reaction buffer to prepare 5× compound for later use. Then 2 μL of 5× compound was transferred from the 96-well plate into a 384-well plate. To the compound-free control wells was added 2 μL of the following liquid: 19 μL of 1× reaction buffer with addition of 1 μL of DMSO. To the blank control well was added 2 μL of 250 mM EDTA. […] In the fourth step of reaction termination, HTRF Detection buffer was used to prepare a mixture of 2×TK Antibody-EU (K) and Sa-XL665, and the amount of TK Antibody-EU (K) was 5 μL per well. After the enzyme reaction was carried out for 30 minutes, 10 μL of the above liquid was added to a 384-well plate, and the reaction was carried out at room temperature for 1 hour. […] RFU665 nM and RFU620 nM were measured, and RFU665 nM/RFU620 nM×10000 was used as final data for analysis.

The test system of assay [1] is N87 (human gastric cancer cell NCI-N87). Nature of the assay: In vitro proliferation inhibition assay of cell lines (CellTiter-Glo), N87. The format is cell-based. To be noted: N87 cells, 72 hours. Here is the method: (§3) In Vitro Proliferation Inhibition Assay of Cell Lines
(§4) 1. Cell culture and inoculation: on the first day of the experiment, normal cultured cells were taken, and in the exponential growth state, after digestion and dispersion, the cell density was then adjusted to 8.8×10^4 cells/mL for BT-474, and 6.6×10^4 cells/mL for N87, and 90 μL of which were inoculated to each well of a 96-well cell culture plate; after the inoculation was completed, the microplate was cultured under the conditions of 37° C. and 5% CO2 overnight. 2. Dosing to the cells: on the second day of the experiment, the microplate was taken out from the incubator, and 10 μL of 10× compound was added to each well of the microplate, setting 2 duplicate wells for each drug concentration and 9 dosing concentrations for each compound. According to different cell lines, the initial concentration of each compound was different. Upon completion of addition, the microplate was placed under the conditions of 37° C. and 5% CO2 for 72 hours. 3. Data acquisition: the microplate was taken out from the incubator and was allowed to equilibrate at room temperature for 30 minutes. 100 μL of CellTiter-Glo® Luminescent Cell Viability Assay reaction solution which had been equilibrated at room temperature was added to each well, and the reaction solution was shaken at 1300 rpm for 2 minutes at room temperature. After that, the microplate was placed in HERAEUS Multifuge X1R centrifuge, centrifuged at 2000 rpm for 1 minute, and allowed to equilibrate at room temperature for 10 minutes. The fluorescence signal value was measured on EnVision™.

For a further assay, the target named is T1, ErbB2 kinase (Homo sapiens, UniProt P04626).
T1 construct: The final concentration of ErbB2 kinase was 0.06 ng/μL
T1 sequence (P04626 23-1255): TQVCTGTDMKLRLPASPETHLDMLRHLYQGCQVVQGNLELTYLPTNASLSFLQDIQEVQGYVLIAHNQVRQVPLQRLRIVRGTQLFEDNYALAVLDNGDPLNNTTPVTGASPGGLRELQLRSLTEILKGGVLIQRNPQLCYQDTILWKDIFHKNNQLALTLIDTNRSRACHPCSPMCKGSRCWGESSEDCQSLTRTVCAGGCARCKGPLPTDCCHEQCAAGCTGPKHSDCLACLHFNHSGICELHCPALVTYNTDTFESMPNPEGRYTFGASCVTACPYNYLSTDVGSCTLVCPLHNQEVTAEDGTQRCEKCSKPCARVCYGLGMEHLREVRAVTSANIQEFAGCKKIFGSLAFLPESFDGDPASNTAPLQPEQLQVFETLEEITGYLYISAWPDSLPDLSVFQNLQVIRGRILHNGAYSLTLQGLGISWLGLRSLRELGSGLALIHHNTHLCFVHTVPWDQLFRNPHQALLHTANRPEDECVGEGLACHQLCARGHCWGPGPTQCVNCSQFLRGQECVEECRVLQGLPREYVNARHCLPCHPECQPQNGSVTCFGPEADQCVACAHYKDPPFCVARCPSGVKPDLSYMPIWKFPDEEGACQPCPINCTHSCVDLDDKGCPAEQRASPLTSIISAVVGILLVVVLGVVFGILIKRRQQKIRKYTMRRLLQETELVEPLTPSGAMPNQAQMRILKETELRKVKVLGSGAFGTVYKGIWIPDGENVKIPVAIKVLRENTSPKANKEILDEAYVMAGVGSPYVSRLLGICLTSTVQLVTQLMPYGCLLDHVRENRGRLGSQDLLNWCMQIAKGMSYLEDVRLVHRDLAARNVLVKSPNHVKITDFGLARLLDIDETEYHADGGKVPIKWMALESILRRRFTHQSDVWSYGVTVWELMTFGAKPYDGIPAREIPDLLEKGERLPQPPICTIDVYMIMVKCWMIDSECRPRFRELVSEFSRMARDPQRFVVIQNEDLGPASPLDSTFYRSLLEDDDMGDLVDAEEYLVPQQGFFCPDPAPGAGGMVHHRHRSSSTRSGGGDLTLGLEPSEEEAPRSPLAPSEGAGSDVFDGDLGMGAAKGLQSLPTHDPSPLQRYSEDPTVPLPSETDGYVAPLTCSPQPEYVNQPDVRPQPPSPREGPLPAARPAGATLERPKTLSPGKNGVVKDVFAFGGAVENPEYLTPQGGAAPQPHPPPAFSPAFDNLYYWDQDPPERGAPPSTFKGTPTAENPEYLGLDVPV
Nature of the assay: EGFR/ErbB2 enzymatic experiment (HTRF kinEASE-TK), ErbB2. The format is biochemical. To be noted: ErbB2 kinase 0.06 ng/μL, ATP 4 μM; read-out: Kinase IC50 (nM) in vitro ErbB2. Here is the method:
as §1, §2

Assay [2] has as its system BT-474 (human breast cancer cell). The experiment in a line: In vitro proliferation inhibition assay of cell lines (CellTiter-Glo), BT-474. In kind it is cell-based. To be noted: BT-474 cells, 72 hours. The procedure:
as §3
as §4, with “Cell culture and inoculation: on the first day of the experiment, normal cultured cells were taken, and in the exponential growth state, after digestion and dispersion, the cell density was then adjusted to 8.8×10^4 cells/mL for BT-474, and 6.6×10^4 cells/mL for N87, and 90 μL of which were inoculated to each well of a 96-well cell culture plate; after the inoculation was completed, the microplate was cultured under the conditions of 37° C. and 5% CO2 overnight.” left out

Molecules are shown by their SMILES.

Chain of EGFR kinase (P00533 25-1210): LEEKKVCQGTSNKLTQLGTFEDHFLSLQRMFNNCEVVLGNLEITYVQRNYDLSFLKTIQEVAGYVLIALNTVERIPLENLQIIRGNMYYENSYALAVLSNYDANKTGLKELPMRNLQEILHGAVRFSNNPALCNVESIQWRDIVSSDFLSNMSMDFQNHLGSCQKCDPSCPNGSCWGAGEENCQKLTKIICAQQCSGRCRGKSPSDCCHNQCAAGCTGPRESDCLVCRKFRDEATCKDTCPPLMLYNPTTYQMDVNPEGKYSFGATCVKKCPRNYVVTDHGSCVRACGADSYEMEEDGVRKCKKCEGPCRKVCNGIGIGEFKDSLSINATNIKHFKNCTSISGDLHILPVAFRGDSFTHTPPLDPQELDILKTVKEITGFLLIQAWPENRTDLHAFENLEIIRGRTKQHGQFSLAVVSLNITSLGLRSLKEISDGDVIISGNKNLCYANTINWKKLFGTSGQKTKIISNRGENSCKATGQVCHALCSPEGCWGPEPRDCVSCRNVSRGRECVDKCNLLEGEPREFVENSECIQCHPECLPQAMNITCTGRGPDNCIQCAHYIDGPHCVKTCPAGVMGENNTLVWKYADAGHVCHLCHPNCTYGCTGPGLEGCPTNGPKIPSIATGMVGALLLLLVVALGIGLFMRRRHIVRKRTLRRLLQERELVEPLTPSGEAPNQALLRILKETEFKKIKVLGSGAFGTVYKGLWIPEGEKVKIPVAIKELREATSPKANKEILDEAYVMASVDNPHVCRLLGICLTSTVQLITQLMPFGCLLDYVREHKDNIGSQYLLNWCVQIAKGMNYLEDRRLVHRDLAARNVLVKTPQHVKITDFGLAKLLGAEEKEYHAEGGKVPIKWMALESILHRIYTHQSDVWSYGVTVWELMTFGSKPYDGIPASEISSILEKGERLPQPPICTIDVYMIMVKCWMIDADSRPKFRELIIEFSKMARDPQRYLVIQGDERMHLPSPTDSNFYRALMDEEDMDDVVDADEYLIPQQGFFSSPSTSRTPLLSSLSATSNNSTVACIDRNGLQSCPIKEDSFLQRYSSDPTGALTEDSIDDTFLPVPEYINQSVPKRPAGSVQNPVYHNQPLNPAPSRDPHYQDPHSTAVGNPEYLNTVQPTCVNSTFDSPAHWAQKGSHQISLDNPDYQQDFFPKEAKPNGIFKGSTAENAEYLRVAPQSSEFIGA

For the compound `Cc1cc(Nc2ncnc3ccc(/C=C/C(=O)N(C)C)cc23)ccc1Oc1cc2nncn2cn1` [Final product of Embodiment 15, (E)-3-(4-((4-([1,2,4]triazolo[4,3-c]pyrimidin-7-yloxy)-3-methylphenyl)amino)quinazolin-6-yl)-N,N-dimethylacrylamide], the IC50 on EGFR kinase worked out at 156 nM; in assay [1], 301 nM; on ErbB2 kinase, 17.5 nM; in assay [2] it was 162 nM.

Turning to `C=CC(=O)N1CCC[C@@H](Nc2ccc3ncnc(Nc4ccc(Oc5cc6nncn6cn5)c(C)c4)c3c2)C1` [Final product of Embodiment 7, (R)-1-(3-((4-((4-([1,2,4]triazolo[4,3-c]pyrimidin-7-yloxy)-3-methylphenyl)amino)quinazolin-6-yl)amino)piperidin-1-yl)propan-2-en-1-one], the IC50 was determined as 7.09 nM on EGFR kinase, 65.5 nM in assay [1], 0.851 nM on ErbB2 kinase and 49.5 nM in assay [2].

For `Cc1cc(Nc2ncnc3ccc(NC(=O)/C=C/[C@H]4CCCN4C)cc23)ccc1Oc1cnn2cnnc2c1` [Final product of Embodiment 29, (R,E)-N-(4-((4-([1,2,4]triazolo[4,3-b]pyridazin-7-yloxy)-3-methylphenyl)amino)quinazolin-6-yl)-3-(1-methylpyrrolidin-2-yl) acrylamide], the IC50 was 20.5 nM on EGFR kinase, 60.4 nM in assay [1], 15.2 nM at ErbB2 kinase and 46.6 nM in assay [2].

For `Cc1cc(Nc2ncnc3ccc(/C=C/C(=O)NC4CC4)cc23)ccc1Oc1cc2nncn2cn1` [Final product of Embodiment 16, (E)-3-(4-((4-([1,2,4]triazolo[4,3-c]pyrimidin-7-yloxy)-3-methylphenyl)amino)quinazolin-6-yl)-N-cyclopropylacrylamide], the half-inhibitory concentration (IC50) at EGFR kinase amounted to 33.7 nM; in assay [1], 692 nM; on ErbB2 kinase, 22 nM; in assay [2], 256 nM.

Take `Cc1cc(Nc2ncnc3ccc(NC(=O)/C=C/[C@H]4CCCN4C)cc23)ccc1Oc1ccn2cnnc2c1` [Final product of Embodiment 25]: the IC50 on EGFR kinase turned out to be 23.4 nM; in assay [1] it was 68.2 nM; at ErbB2 kinase, 8.47 nM; in assay [2], 50.7 nM.

For `C=CC(=O)Nc1ccc2ncc(C#N)c(Nc3ccc(Oc4cc5nncn5cn4)c(C)c3)c2c1` [Final product of Embodiment 9, N-(4-((4-([1,2,4]triazolo[4,3-c]pyrimidin-7-yloxy)-3-methylphenyl)amino)-3-cyanoquinolin-6-yl)acrylamide], the IC50 on EGFR kinase came out at 13.8 nM; in assay [1], 18.8 nM; on ErbB2 kinase it was 7.98 nM; in assay [2], 9.62 nM.

For `Cc1cc(Nc2ncnc3ccc(NC(=O)C=CC4COCCN4)cc23)ccc1Oc1cc2nncn2cn1` (stereo in doubt) [Final product of Embodiment 28, (E)-N-(4-((4-([1,2,4]triazolo[4,3-c]pyrimidin-7-yloxy)-3-methylphenyl)amino)quinazolin-6-yl)-3-(morpholin-3-yl)acrylamide], the IC50 on EGFR kinase was 5.29 nM; in assay [1], 33.4 nM; on ErbB2 kinase, 3.25 nM; in assay [2], 11 nM.

In assay [1], `Cc1cc(Nc2ncnc3ccc(NC(=O)/C=C/[C@@H]4CCCN4C)cc23)ccc1Oc1cc2nncn2cn1` [Final product of Embodiment 1-97, (S,E)-N-(4-((4-([1,2,4]triazolo[4,3-c]pyrimidin-7-yloxy)-3-methylphenyl)amino)quinazolin-6-yl)-3-(1-methylpyrrolidin-2-yl)acrylamide] displayed an IC50 of 10 nM.

As to `COCCOc1cc2ncnc(Nc3ccc(Oc4cc5nncn5cn4)c(C)c3)c2cc1NC(=O)/C=C/[C@H]1CCCN1` [Final product of Embodiment 35], the IC50 at EGFR kinase is 0.514 nM; in assay [1] it was 18.9 nM; on ErbB2 kinase, 2.67 nM; in assay [2] it was 17.7 nM.

Consider `COCCOc1cc2ncnc(Nc3ccc(Oc4cc5nncn5cn4)c(C)c3)c2cc1NC(=O)/C=C/[C@H]1CCCN1C` [Final product of Embodiment 36], for which the IC50 came out at 0.53 nM on EGFR kinase, 1.64 nM in assay [1], 1.1 nM at ErbB2 kinase and 1.89 nM in assay [2].

For `Cc1cc(Nc2ncnc3ccc(NC(=O)/C=C/[C@H]4CCCN4C)cc23)ccc1Oc1cnc2ccnn2c1`, the IC50 at EGFR kinase turned out to be 0.757 nM; in assay [1], 1.6 nM; on ErbB2 kinase, 1.09 nM; in assay [2], 2.65 nM.

Consider `Cc1cc(Nc2ncnc3ccc(NC(=O)/C=C/C4COCCN4)cc23)ccc1Oc1cc2nncn2cn1` (stereo not shown) [Final product of Embodiment 27, (E)-N-(4-((4-([1,2,4]triazolo[4,3-c]pyrimidin-7-yloxy)-3-methylphenyl)amino)quinazolin-6-yl)-3-(morpholin-3-yl)acrylamide], for which the IC50 on EGFR kinase is 2.21 nM; in assay [1], 77.5 nM; at ErbB2 kinase, 1.61 nM; in assay [2] it was 25.7 nM.

In the case of `Cc1cc(Nc2c(C#N)cnc3ccc(NC(=O)/C=C/[C@H]4CCCN4C)cc23)ccc1Oc1cnc2c(cnn2C)c1` [Final product of Embodiment 31], the IC50 at EGFR kinase came out at 65.2 nM; in assay [1], 66.5 nM; on ErbB2 kinase, 220 nM; in assay [2] it was 76 nM.

In the case of `Cc1cc(Nc2c(C#N)cnc3ccc(NC(=O)/C=C/[C@H]4CCCN4)cc23)ccc1Oc1cc2nncn2cn1` [Final product of Embodiment 21, (R,E)-N-(4-((4-([1,2,4]triazolo[4,3-c]pyrimidin-7-yloxy)-3-methylphenyl)amino)-3-cyanoquinolin-6-yl)-3-(pyrrolidin-2-yl)acrylamide], the IC50 at EGFR kinase is 3.46 nM; in assay [1] it was 94 nM; at ErbB2 kinase it was 8.25 nM; in assay [2], 54.6 nM.

Turning to `CCOc1cc2ncc(C#N)c(Nc3ccc(OCc4ccccn4)c(Cl)c3)c2cc1NC(=O)/C=C/[C@H]1CCCN1C` [drawing 239, reference compound], the IC50 came to 1.2 nM in assay [1], 1.67 nM on ErbB2 kinase and 2.56 nM in assay [2].

On to `Cc1cc(Nc2ncnc3ccc(NC(=O)/C=C/[C@H]4CCCN4C)cc23)ccc1Oc1ccc2nc[nH]c2c1`, for which the IC50 came to 1.5 nM at EGFR kinase, 22.6 nM in assay [1], 0.689 nM at ErbB2 kinase and 15.4 nM in assay [2].

Compound `CCOc1cc2ncc(C#N)c(Nc3ccc(OCc4ccccn4)c(Cl)c3)c2cc1NC(=O)/C=C/CN(C)C` [drawing 240, reference compound] came in with an IC50 in assay [1] of 0.82 nM.
